# Results as given in US6465450B2, “Vanadium (IV) complexes containing catecholate ligand and having spermicidal activity” (Parker Hughes Institute, priority 1999, dated 2002).
# pEC50: −log10 of the molar value. Read-outs that look alike come from different tables or passages of the source.
# Experiments:
# human sperm [1] = assay: Sperm immobilization assay (SIA), 3 h incubation, motility by CASA; assay type: cell-based; settings: for pEC50: motile fractions of human sperm incubated 3 h with increasing concentrations, 37° C., read-out: EC50 (concentration of compound required for 50% sperm motility loss)
# Experimental: Sperm Immobilization Assay (SIA): To evaluate the spermicidal effects of complexes 1-4 a highly motile fraction of pooled donor sperm(n=5) was prepared by discontinuous (90-45%) Percoll gradient (Conception Technologies, San Diego, Calif.) centrifugation and the “swim-up” method as described previously (Aitken et al., 1989, Biol. Reprod. 40:183-197). All donor specimens were obtained after informed consent and in compliance with the guidelines of the Hughes Institutional Review Board. Motile sperm (≧10×10^6/ml) were suspended in 1 ml of Biggers, Whitten, and Whittingam's medium (BWW) containing 0.3% BSA (fraction V; Sigma Chemical Co., St. Louis, Mo.) in the presence and absence of serial 2-fold dilutions of test substance (250 μM -1.9 μM) in 0.25% dimethyl sulfoxide (DMSO). For each experiment, fresh stock solutions (100 mM) of vanadium compounds were prepared in DMSO. A corresponding volume of DMSO […] was added to control sperm suspension. After 3hours of incubation at 37° C., the percentage of motile sperm was evaluated by computer-assisted sperm motion analysis (CASA) as described previously (Aitken et al., 1989, Supra). The percentages of motilities were compared with those of sham-treated control suspensions of motile sperm. The spermicidal activity of test compounds was expressed as the EC50 values (the final concentration of the compound in medium that decreases the proportion of motile sperm by 50%).
# (§1) Sperm Kinematic Parameters: For CASA, 4 μl each of sperm suspension was loaded into two 20 μm Microcell chambers placed onto a counting chamber at 37° C. At least 5-8 fieldsper chamber were scanned for analysis using a Hamilton Thorne Integrated Visual Optical System (IVOS) version 10 instrument (Hamilton Thorne Research Inc., Danvers, Mass.). Each field was recorded for 30 seconds. The Hamilton Thorne computer calibrations were set at 30 frames at a frame rate of 30 images/seconds. Other settings were as follows: minimum contrast 8; minimum size 6; low-size gate, 1.0; high-size gate, 2.9; low-intensity gate, 0.6; high-intensity gate, 1.4; phase-contrast illumination; low path velocity at 10 μm/seconds and threshold straightness at 80%; magnification factor, 1.95. The performance of the analyzer was periodically checked using the playback function.
# The attributes of sperm kinematic parameters evaluated included numbers of motile (MOT) and progressively (PRG) motile sperm; curvilinear velocity (VCL; a measure of the total distance traveled by a given sperm during the acquisition divided by the time elapsed); average path velocity (VAP; the spatially averaged path that eliminates the wobble of the sperm head), straight-line velocity (VSL; the straight-line distance from beginning to end of track divided by time taken), beat-cross frequency (BCF; frequency of lateral head displacement), (ALH; the mean width of sperm head oscillation), and the derivatives, straightness (STR=VSL divided by VAP×100), linearity (LIN=VSL divided by VCL×100, departure of sperm track from a straight line). Data from each individual cell track were recorded and analyzed. At least 200 sperm were analyzed for each aliquot sampled.
# A non-linear regression analysis was used to find the EC50 and T1/2 values (the concentration of the compound, and the time required for 50% sperm motility loss, respectively) from the concentration effect curves.
# [2] = Stability of the complexes as solids or in solution (cyclic voltammetry and UV-vis spectroscopy)
# Experimental: UV/Vis Spectra: A UV/vis polarizer attachment was used for the polarization experiments. UV-vis spectra were recorded in a quartz cell or cuvette on a Beckman Model DU 7400 spectrophotometer and the spectral bands were registered in the 200-800 nm range.
# Electrochemical Measurements: Electrochemical measurements were performed on a Bioanalytical Systems B/W 100b electrochemical analyzer with internal resistance (IR) compensation. The cyclic voltammograms taken in acetonitrile were obtained in a 0.1 M Bu4NPF6 (TABP) electrolyte solution with a 0.1 M Ag/AgNO3 reference electrode, a Platinum Disc working electrode, and a platinum wire auxiliary electrode. Solutions were purged with nitrogen: and scanned at 200 mV/s. Aqueous cyclic voltammograms were taken in a standard PBS solution, using a Ag/AgCl reference electrode, a glassy carbon working electrode, and a platinum wire auxiliary electrode. Solutions were purged with nitrogen and scanned at 200 mV/s. All potentials were referenced to the ferrocene-ferrocinium couple (E1/2=0.185 V vs Ag/AgCl in PBS).
# human sperm [3] = assay: Time course of sperm immobilization by CASA; assay type: cell-based; settings: motile sperm incubated of each complex (footnote); motility by CASA at timed intervals
# Experimental: […] At timed intervals (every 5 and 10 minutes) aliquots (4μl) were transferred to two 20 μm Microcell (Conception Technologies) chambers, and sperm motility was assessed by CASA.
# as §1, with “function. […]” for “function.”
Molecule,pEC50 (human sperm [1]),T1/2 (time required for 50% sperm motility loss) (human sperm [3]) [min],other results
"[O-]c1c([O-])c(Cl)c(Cl)c(Cl)c1Cl.[V+2].c1cc[cH-]c1.c1cc[cH-]c1 [Cp2V(catCl4) (1), Vanadocene tetrachloro catecholate]",< 3.60,,"spermicidal activity in words (human sperm [1]; in the concentration ranges examined): no spermacidal activity; solubility in water: not soluble in water; t1/2 (stability) ([2]; in acetonitrile, air, by cyclic voltammetry and UV-vis spectroscopy): about 2 hr."
"Vanadocene 1,3-diisopropyl catecholate [Cp2V(dpcat) (4)]",6.54,,
Vanadocene mono-tertbutyl catecholate [Cp2V(mbcat) (3)],7.00,5.4,
"[O-]c1ccccc1[O-].[V+2].c1cc[cH-]c1.c1cc[cH-]c1 [Cp2V(cat) (2), Vanadocene catecholate.]",5.62,5.8,
"CC(C)(C)c1cc([O-])c([O-])c(C(C)(C)C)c1.[V+4].c1cc[cH-]c1.c1cc[cH-]c1 [Cp2V(dbcat) (5), Vanadocene 1,3 ditertbutyl catecholate]",,,t1/2 (stability) [2]: about 2 min.
